# Source: patent US10329282B2, “Rho-associated protein kinase inhibitor, pharmaceutical composition comprising the same, as well as preparation method and use thereof” (Beijing Tide Pharmaceutical Co., Ltd., priority 2017, dated 2019)
# Molecular target: ROCK2 (Homo sapiens (Human), UniProt O75116)
# Experiment: ROCK2 kinase IC50 assay (CISBIO HTRF KinEASE-STK S2 kit)
# Assay type: biochemical
# Conditions: ROCK2 from Carna Biosciences, 2 h incubation at room temperature
# Procedure, shortened: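 ROCK2 reaction with STK-S2 substrate and ATP (5× working solutions 1.5 μM each), 2 h at room temperature; 9-point compound dilutions from 10000 nM. HTRF 665/615 emission ratio gave % inhibition versus kinase and no-kinase controls; IC50 by curve fit.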
# Chain of ROCK2 (O75116 1-553): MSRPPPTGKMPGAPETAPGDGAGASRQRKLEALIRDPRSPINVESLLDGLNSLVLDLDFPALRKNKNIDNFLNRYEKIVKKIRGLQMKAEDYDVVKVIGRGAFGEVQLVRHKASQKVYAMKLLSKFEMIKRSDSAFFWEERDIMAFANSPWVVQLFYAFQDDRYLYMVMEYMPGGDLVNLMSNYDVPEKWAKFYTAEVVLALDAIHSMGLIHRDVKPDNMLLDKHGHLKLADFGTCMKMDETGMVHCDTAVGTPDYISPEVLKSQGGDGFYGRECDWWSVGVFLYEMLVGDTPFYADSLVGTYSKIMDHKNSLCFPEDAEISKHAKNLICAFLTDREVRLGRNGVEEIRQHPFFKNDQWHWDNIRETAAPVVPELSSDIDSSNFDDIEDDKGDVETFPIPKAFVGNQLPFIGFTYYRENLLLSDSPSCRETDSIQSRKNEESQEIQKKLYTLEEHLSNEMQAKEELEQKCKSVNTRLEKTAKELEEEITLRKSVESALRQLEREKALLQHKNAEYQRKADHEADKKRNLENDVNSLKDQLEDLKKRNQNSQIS
row,Structure (SMILES),IC50 [nM]
1,N#Cc1cnccc1NC(=O)c1cc2ccc(-c3nccc(Nc4ccc(-c5cn[nH]c5)cc4)n3)cc2[nH]1 [TDI01829B],82
2,O=C(Nc1ccncc1I)c1cc2ccc(-c3nccc(Nc4ccc(-c5cn[nH]c5)cc4)n3)cc2[nH]1 [TDI01829C],97
3,"O=C(NC1CCN(c2ccncc2Cl)CC1)c1cc2ccc(-c3nccc(Nc4ccc(-c5cn[nH]c5)cc4)n3)cc2[nH]1 [TDI01847B, 6-(4-((4-(1H-pyrazol-4-yl)phenyl)amino)pyrimidin-2-yl)-N-(1-(3-chloropyridin-4-yl)piperidin-4-yl)-1H-indole-2-carboxamide]",26
4,"C[C@@H](NC(=O)c1cc2ccc(-c3nccc(Nc4ccc(-c5cn[nH]c5)cc4)n3)cc2[nH]1)c1ccncc1 [TDI01849B, (R)-6-(4-((4-(1H-pyrazol-4-yl)phenyl)amino)pyrimidin-2-yl)-N-(1-(pyridin-4-yl)ethyl)-1H-indole-2-carboxamide]",210

# Results, then the compound that gave them:
row,IC50 [nM],Structure (SMILES)
1,28,O=C(c1cc2ccc(-c3nccc(Nc4ccc(-c5cn[nH]c5)cc4)n3)cc2[nH]1)N1CC(C(F)F)C1 [TDI01435]
2,305,CN(CCC#N)C(=O)c1cc2ccc(-c3nccc(Nc4ccc(-c5cn[nH]c5)cc4)n3)cc2[nH]1 [TDI01442]
3,336,"CCN(CC)C(=O)c1cc2ccc(-c3ncc(OC)c(Nc4ccc(-c5cn[nH]c5)cc4)n3)cc2[nH]1 [TDI01823, 6-(4-((4-(1H-pyrazol-4-yl)phenyl)amino)-5-methoxypyrimidin-2-yl)-N,N-diethyl-1H-indole-2-carboxamide]"
4,482,"O=C(c1cc2ccc(-c3nccc(Nc4ccc(-c5cn[nH]c5)cc4)n3)cc2[nH]1)N1CCO[C@@H](CO)C1 [TDI01852, (R)-(6-(4-((4-(1H-pyrazol-4-yl)phenyl)amino)pyrimidin-2-yl)-1H-indel-2-yl)(2-(hydroxymethyl)morpholino)methanone]"
5,275,"O=C(c1cc2ccc(-c3nccc(Nc4ccc(-c5cn[nH]c5)cc4)n3)cc2[nH]1)N1CCOC[C@H]1CO [TDI01853, (R)-(6-(4-((4-(1H-pyrazol-4-yl)phenyl)amino)pyrimidin-2-yl)-1H-indol-2-yl)(3-(hydroxymethyl)morpholino)methanone]"
6,147,"C[C@H](CN)NC(=O)c1cc2ccc(-c3nccc(Nc4ccc(-c5cn[nH]c5)cc4)n3)cc2[nH]1 [TDI01855, (R)-6-(4-((4-(1H-pyrazol-4-yl)phenyl)amino)pyrimidin-2-yl)-N-(1-aminopropan-2-yl)-1H-indole-2-carboxamide]"
7,141,"C[C@@H](CN)NC(=O)c1cc2ccc(-c3nccc(Nc4ccc(-c5cn[nH]c5)cc4)n3)cc2[nH]1 [TDI01856, (S)-6-(4-((4-(1H-pyrazol-4-yl)phenyl)amino)pyrimidin-2-yl)-N-(1-aminopropan-2-yl)-1H-indole-2-carboxamide]"
